Source: the supplement of paper PMC10307832

Assays:
Assay in all cases: relative viability (nuclei count vs DMSO), 5 days (fraction); higher = more cells survive
[1] = compound: CN1CCC(CC1)OC2=CC(=C(C=C2)NC3=NC=C4C(=N3)N(C(=O)N4C)C5CCCC5)OC [AZ3146] + C[C@@H](Oc1cc(-c2cnn(C3CCNCC3)c2)cnc1N)c1c(Cl)ccc(F)c1Cl [Crizotinib] (partner 1 µM)
Method in brief: (§1)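 Each reported value is a median over duplicate plates. It expresses relative viability: treated-well nuclei count divided by vehicle-well nuclei count. Lung cancer cell lines in 1536-well plates were dosed by pin tool a day after seeding, alone with one drug or with a fixed anchor-drug dose plus five library-drug doses (not always all listed) in √10 steps, and nuclei were counted after 5 days.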

[2] = compound: CN1CCC(CC1)OC2=CC(=C(C=C2)NC3=NC=C4C(=N3)N(C(=O)N4C)C5CCCC5)OC [AZ3146] + O=C(c1cc(Cc2n[nH]c(=O)c3ccccc23)ccc1F)N1CCN(C(=O)C2CC2)CC1 [Olaparib] (partner 8 µM)
Method in brief: as §1

[3] = compound: CCOC(=O)CCNc1cc(N2CCc3ccccc3CC2)nc(-c2ccccn2)n1 [GSK-J4] + C[C@]1(O)C[C@@H](c2nc(-c3ccc4ccc(-c5ccccc5)nc4c3)c3c(N)nccn32)C1 [Linsitinib] (partner 1 µM)
Method in brief: as §1

[4] = compound: CN1CCC(CC1)OC2=CC(=C(C=C2)NC3=NC=C4C(=N3)N(C(=O)N4C)C5CCCC5)OC [AZ3146] + Nc1nc2[nH]cc(CCc3ccc(C(=O)N[C@@H](CCC(=O)O)C(=O)O)cc3)c2c(=O)[nH]1 [Pemetrexed] (partner 0.2 µM)
Method in brief: as §1

Row | Cell Line | relative viability ([1]; first compound 0.253 µM) | relative viability ([1]; first compound 0.8 µM) | relative viability ([1]; first compound 2.53 µM) | relative viability ([1]; first compound 8 µM) | relative viability ([2]; first compound 0.08 µM) | relative viability ([2]; first compound 0.253 µM) | relative viability ([2]; first compound 0.8 µM) | relative viability ([2]; first compound 2.53 µM) | relative viability ([2]; first compound 8 µM) | relative viability ([3]; first compound 0.5 µM) | relative viability ([3]; first compound 1.581 µM) | relative viability ([3]; first compound 5 µM) | relative viability ([3]; first compound 15.81 µM) | relative viability ([3]; first compound 50 µM) | relative viability ([4]; first compound 0.08 µM) | relative viability ([4]; first compound 0.253 µM) | relative viability ([4]; first compound 0.8 µM) | relative viability ([4]; first compound 2.53 µM) | relative viability ([4]; first compound 8 µM) | relative viability ([1]; first compound 0.08 µM)
1 | NCI-H1944 | 0.977 | 1.09 | 1.13 | 1.1 | 0.36 | 0.391 | 0.408 | 0.475 | 0.473 | 1.2 | 0.977 | 1.22 | 1.22 | 1.2 | 0.484 | 0.616 | 0.636 | 0.646 | 0.705 | 
2 | LK-2 |  |  | 0.228 | 0.219 | 0.61 | 0.586 | 0.559 | 0.672 | 0.831 | 0.69 | 0.449 | 0.774 | 0.537 | 0.602 |  |  | 0.168 | 0.318 | 0.307 | 0.229
3 | HCC-44 | 0.791 | 0.724 | 0.796 | 0.668 | 0.996 | 0.991 | 1.06 | 0.964 | 0.942 | 0.704 | 0.625 | 0.709 | 0.735 | 0.646 | 0.601 | 0.654 | 0.687 | 0.698 | 0.654 | 0.779
4 | CAL-12T | 0.72 | 0.595 | 0.733 | 0.247 | 0.733 | 0.822 | 0.717 | 0.658 | 0.6 | 0.856 | 0.776 | 0.776 | 0.742 | 0.648 | 1.1 | 1.15 | 1.29 | 1.33 | 1.13 | 0.507
5 | NCI-H2405 | 0.842 | 0.733 | 0.899 | 0.798 | 0.827 | 0.881 | 0.933 | 0.925 | 0.818 | 1.03 | 0.919 |  | 1.07 | 1.1 | 1.12 | 1.06 | 1.1 | 1.11 | 1.04 | 0.808
6 | 201T | 1.03 | 1 | 1.06 | 1.02 | 0.855 | 0.829 | 0.827 | 0.874 | 0.805 | 1.02 | 1.08 | 1.1 | 1.04 | 1.06 | 0.275 | 0.328 | 0.32 | 0.331 | 0.303 | 1.02
7 | NCI-H358 | 0.616 | 0.425 | 0.398 | 0.177 | 0.555 | 0.578 | 0.592 | 0.583 | 0.442 | 0.682 | 0.513 | 0.746 | 0.717 | 0.857 | 0.153 | 0.168 | 0.192 | 0.171 | 0.156 | 0.587
8 | NCI-H596 | 0.947 | 1.02 | 1.02 | 1.01 | 0.677 | 0.738 | 0.752 | 0.77 | 0.765 | 1 | 1.08 | 1.07 | 0.938 | 1.02 | 0.478 | 0.449 | 0.574 | 0.486 | 0.556 | 1.02
9 | NCI-H838 | 0.798 | 0.656 | 0.613 | 0.281 | 0.771 | 0.769 | 0.766 | 0.724 | 0.253 | 0.973 | 0.982 |  | 0.999 | 1 | 0.233 | 0.239 | 0.283 | 0.269 | 0.211 | 0.797
10 | HCC-366 | 0.695 | 0.246 | 0.192 | 0.0532 | 0.304 | 0.388 | 0.401 | 0.399 | 0.302 | 0.622 | 0.547 |  | 0.478 | 0.437 | 0.166 | 0.205 | 0.198 | 0.157 | 0.148 | 0.514
11 | NCI-H1651 | 0.811 | 0.912 | 0.844 | 0.871 | 0.191 | 0.185 | 0.2 | 0.214 | 0.202 | 0.959 | 0.878 | 1.05 | 0.9 | 0.939 | 0.58 | 0.579 | 0.463 | 0.569 | 0.595 | 0.671
12 | LOU-NH91 | 0.699 | 0.746 | 0.71 | 0.75 | 0.922 | 0.91 | 0.972 | 0.904 | 0.925 | 1 | 0.928 | 0.804 | 0.817 | 1 | 0.327 | 0.448 | 0.362 | 0.368 | 0.411 | 0.749
13 | NCI-H520 | 0.959 | 0.613 | 0.486 | 0.406 | 0.306 | 0.352 | 0.396 | 0.418 | 0.289 | 0.829 | 0.939 | 1.15 | 0.891 | 0.81 | 0.843 | 0.735 | 0.647 | 0.543 | 0.422 | 0.691
14 | H3255 | 0.884 | 0.886 | 1.03 | 0.442 | 0.498 | 0.526 | 0.605 | 0.564 | 0.564 | 0.902 | 0.952 | 0.838 | 0.84 | 0.707 | 0.597 | 0.536 | 0.542 | 0.6 | 0.574 | 0.841
